Measurements: publication PMC7031302, “Design and synthesis of new energy restriction mimetic agents: Potent anti-tumor activities of hybrid motifs of aminothiazoles and coumarins” (Scientific Reports, 2020)

Tests used:
Assay type in all cases: cell-based, Human
[1] = test system: Caspase 3/7 activities in HT-29 cells; assay: Caspase 3/7 activity assay, HT-29; conditions: HT-29, 72 h
Protocol: (§1) Based on this, the energy restriction mediated anticancer activity of the new coumarin tagged aminothiazole derivatives was investigated. The expression levels of PARP, p-Akt, Akt, p-AMPK, AMPK, β-TrCP, LC3A/B-I, LC3A/B-II, caspase-3, cyclin D1, and Bcl-2 proteins were determined by Western blot analysis after 72 h treatment of HT-29 and HCT116 at different concentrations based on the IC50 values of each compound (Fig. 3A,B). […] Moreover, the treatment with 9b and 9f induced caspase 3/7 activation, which was detected by caspase 3/7 activity assay and confirmed by Western blot. The activation of caspases was significant in 9b in both cell lines and significant with 9f in HCT116 cells only and minimal in HT-29 cells (Fig. 3C,D). On the other hand, both 9b and 9f induced dose-dependent proteolytic processing of PARP. […] Besides, the protein expression level of the anti-apoptotic protein, Bcl-2, was reduced in HCT116 upon treatment with both compounds.
(§2) Caspase-3/7 activities in HT-29 and HCT116 cells treated with candidate compounds were measured using Caspase-Glo 3/7 assay kit (Promega, Madison, WI, USA) following the manufacturer’s instructions. […] 50 µL of lysate and 50 µL of caspase substrate were added to a white opaque 96-well plate, and the luminescence was measured by Varioskan Flash multimode reader (Thermo-Scientific, Vantaa, Finland)

[2] = test system: Caspase 3/7 activities in HCT116 cells; assay: Caspase 3/7 activity assay, HCT116; conditions: HCT116, 72 h
Protocol: as §1, §2

HT-29 = assay: Western blot analysis, HT-29; conditions: for expression of LC3A-II and LC3B-II: HT-29 (CRC cell lines); for expression of LC3A-II and LC3B-II / p-mTOR and p-p70S6K levels: 72 h; for AMPK activation through phosphorylation / Akt phosphorylation / PARP cleavage: HT-29, 72 h
Protocol: as §1
(§3) Following 72 h of treatment, cells were lysed and the extracted proteins were quantified using DC protein assay kit (Bio-Rad, Hercules, CA, USA) following the manufacturer’s instructions. Proteins were resolved on 8% or 12% SDS-poly-acrylamide gels, then transferred onto a nitrocellulose membrane using a semi-dry transfer cell. The membranes were blocked in TBS-T containing 5% non-fat milk for 1 h and incubated overnight at 4 °C overnight with indicated primary antibodies (Cell Signaling Technologies, Beverly, MA, USA) and then incubated with goat anti-mouse or anti-rabbit secondary antibody (Cell Signaling Technologies, Beverly, MA, USA) for 1 h at room temperature. Detection was done using chemiluminescence substrate (Bio-Rad, Hercules, CA, USA). β-actin (Cell Signaling Technologies, Beverly, MA, USA) was used as a loading control.
(§4) The blots were captured with ChemiDoc Imaging System (Bio-Rad, Hercules, CA, USA) and bands were visualized with the Image Lab v5.2.1 software (Bio-Rad, Hercules, CA, USA).

HCT116 [3] = assay: Western blot analysis, HCT116; conditions: for expression of LC3A-II and LC3B-II: HCT116 (CRC cell lines)
Protocol: as §1, §3, §4

HCT116 [4] = assay: Glucose uptake assay, HCT116; conditions: HCT116, 16 h treatment, dose-dependent
Excerpt: (§5) According to previous studies, ERMAs inhibited glucose utilization in cancer cells[13],[19]. Therefore, we investigated glucose uptake (Fig. 5A) upon treatment with 9b and 9f in HT-29 and HCT116 cells at different concentrations based on the IC50 of each compound. […] This effect is known to result in the accumulation of reactive oxygen species (ROS) and could play a role in glucose deprivation-induced cytotoxicity and oxidative stress in cancer cells. […] The observed increase in ROS levels could lead to oxidative stress and extensive cell death in the absence of NADPH detoxification.
CRC cells (1 × 10^4) were seeded into a 96-well plate overnight. Cells were treated with test compounds or vehicle (negative control) glucose-free RPMI-1640 medium for 16 h; then, the cells were incubated with 2 mM 2-DG for 10 minutes. Eventually, glucose uptake of cells was measured using Glucose Uptake-Glo Assay (Promega, Madison, WI, USA) according to the manufacturer’s instructions. Luminescence was measured post 2 h of incubation at room temperature using Varioskan Flash multimode reader (Thermo Scientific). Glucose uptake was normalized to the total protein content in the samples using DC protein assay kit (Bio-Rad, Hercules, CA, USA).

HCT116 [5] = assay: ROS-Glo H2O2 assay, HCT116; conditions: HCT116, 6 h incubation
Excerpt: as §5
NADPH/NADP+ and ROS concentrations were measured using the NADP/NADPH-Glo Assay Kit (Promega, Madison, WI, USA) and ROS-Glo H2O2 Assay (Promega, Madison, WI, USA), respectively, based on the manufacturer instructions. In NADPH/NADP+ assay, CRC cells were seeded into a 96-well flat-bottomed plate and incubated overnight. On the following day, cells were treated with the testing compound or vehicle for 48 h. At the endpoint of treatment, the media were aspirated and replaced with 60 µl PBS/well, then cells were lysed in 60 µl base solution with 1% dodecyl (trimethyl) ammonium bromide (Sigma-Aldrich-St. Louis, MO, USA). […] Luminescence was measured after 30 minutes using Varioskan Flash multimode reader (Thermo Scientific). […] Luminescence was measured after 20 min incubation at room temperature.

[6] = HCT116, higher concentrations, except at doses 1 and 2 µM where induced p-mTOR was observed

Structure (SMILES)	activation of caspases (caspase 3/7) [1]	activation of caspases (caspase 3/7) [2]	expression of LC3A-II and LC3B-II (HT-29)	AMPK activation through phosphorylation (HT-29)	Akt phosphorylation (HT-29)	PARP cleavage (HT-29)	p-mTOR and p-p70S6K levels (HT-29; HT-29, higher concentrations)	expression of LC3A-II and LC3B-II (HCT116 [3]; 72 h, Western blot)	AMPK activation through phosphorylation (HCT116 [3]; HCT116, 72 h, Western blot)	protein expression level of Bcl-2 (HCT116 [3]; HCT116, 72 h, Western blot)	Akt phosphorylation (HCT116 [3]; HCT116, high concentrations, 72 h, Western blot)	p-mTOR and p-p70S6K levels (HCT116 [3]; [6])	glucose uptake (HCT116 [4])	generation of hydrogen peroxide (H2O2) and ROS (HCT116 [5])	p-mTOR and p-p70S6K levels (HT-29; HT-29, 0.5 µM)	p-mTOR and p-p70S6K levels (HCT116 [3]; HCT116, 0.5 µM, 72 h, Western blot)	PARP cleavage (HCT116 [3]; HCT116, 72 h, Western blot)	expression of β-TrCP and cyclin D (HCT116 [3]; HCT116, 72 h, Western blot)
Cc1cc(=O)oc2cc(Nc3nc(-c4cccc([N+](=O)[O-])c4)cs3)ccc12 [Compound 9f, 4-Methyl-7-(4-(3-Nitrophenyl)thiazol-2-ylamino)-2H-chromen-2-one]	minimal	significant	induced the expression of LC3A-II and LC3B-II	enhancement of AMPK activation	inhibition of Akt phosphorylation	PARP cleavage only in HT-29 cells at the highest tested dose	decrease	induced the expression of LC3A-II and LC3B-II	enhancement of AMPK activation	reduced	induced Akt phosphorylation	decrease	inhibited significantly	significantly increased				
Cc1cc(=O)oc2cc(Nc3nc(-c4ccc(Br)cc4)cs3)ccc12 [Compound 9b, 7-(4-(4-Bromophenyl)thiazol-2-ylamino)-4-methyl-2H-chromen-2-one]	significant	significant	induced the expression of LC3A-II and LC3B-II	enhancement of AMPK activation	inhibition of Akt phosphorylation	induced PARP cleavage	decrease	induced the expression of LC3A-II and LC3B-II	enhancement of AMPK activation	reduced		decrease	inhibited significantly	significantly increased	initial increase	initial increase	induced PARP cleavage	dose-dependent downregulation
